Where two headings read alike, the source gives them in different places.
Experiments:
5HT2A receptor [1] = molecular target: T1, 5HT2A receptor (Homo sapiens, UniProt P28223); assay: cell-based; design: expressed in transfected cells; host or cells: HEK293T cells, transient co-transfection; conditions: for Emax: HEK-293T
5HT2A receptor [2] = molecular target: T1, 5HT2A receptor; assay: cell-based; design: expressed in transfected cells; host or cells: HEK293T cells, transient co-transfection; conditions: for Emax: HEK-293T; remark: listed apart in the source
5HT2A receptor [3] = molecular target: T1, 5HT2A receptor; assay: biochemical; format: binding; design: expressed in transfected cells; crude membranes
[4] = BRET2 Gαq dissociation, HEK293T cells, read-out: 5HT2A Gq EC50
[5] = BRET2 Gαq dissociation, HEK293T cells, normalized to 5-HT, read-out: 5HT2A Gq Emax (%)
[6] = 5HT2A β-Arr EC50 (nM), BRET1 beta-arrestin2 recruitment, HEK293T cells
[7] = BRET1 beta-arrestin2 recruitment, HEK293T cells, normalized to 5-HT, read-out: 5HT2A β-Arr Emax (%)
[8] = 5HT2A Ki (nM), secondary radioligand binding, Ki from IC50 by Cheng-Prusoff
[9] = 5HT2A Gq EC50 (nM), BRET2 Gαq dissociation, HEK293T cells
[10] = BRET2 Gαq dissociation, HEK293T, read-out: 5HTA Gq EC50
[11] = BRET2 Gαq dissociation, HEK293T, normalized to 5-HT, read-out: 5HTA Gq Emax (%)
[12] = 5HT2A β-Arr EC50 (nM), BRET1 beta-arrestin2 recruitment, HEK293T
[13] = BRET1 beta-arrestin2 recruitment, HEK293T, normalized to 5-HT, read-out: 5HT2A β-Arr Emax (%)
[14] = 5HT2A Ki (nM), secondary binding assay, Cheng-Prusoff
[15] = BRET2 Gαq dissociation, HEK293T, normalized to 5-HT
[16] = secondary binding assay, Cheng-Prusoff, read-out: 5HT2A Ki
[17] = 5HTA Gq EC50 (nM), BRET2 Gαq dissociation, HEK293T
[18] = read-out: 5HTA Gq Emax (%), BRET2 Gαq dissociation, HEK293T, normalized to 5-HT
[19] = read-out: 5HT2A β-Arr Emax (%), BRET1 beta-arrestin2 recruitment, HEK293T, normalized to 5-HT
[20] = secondary radioligand binding, Ki from IC50 by Cheng-Prusoff, read-out: 5HT2A Ki
[21] = BRET1 beta-arrestin2 recruitment, HEK293T cells, read-out: 5HT2A β-Arr EC50
[22] = BRET1 beta-arrestin2 recruitment, HEK293T, normalized to 5-HT

T1 sequence (P28223 whole entry): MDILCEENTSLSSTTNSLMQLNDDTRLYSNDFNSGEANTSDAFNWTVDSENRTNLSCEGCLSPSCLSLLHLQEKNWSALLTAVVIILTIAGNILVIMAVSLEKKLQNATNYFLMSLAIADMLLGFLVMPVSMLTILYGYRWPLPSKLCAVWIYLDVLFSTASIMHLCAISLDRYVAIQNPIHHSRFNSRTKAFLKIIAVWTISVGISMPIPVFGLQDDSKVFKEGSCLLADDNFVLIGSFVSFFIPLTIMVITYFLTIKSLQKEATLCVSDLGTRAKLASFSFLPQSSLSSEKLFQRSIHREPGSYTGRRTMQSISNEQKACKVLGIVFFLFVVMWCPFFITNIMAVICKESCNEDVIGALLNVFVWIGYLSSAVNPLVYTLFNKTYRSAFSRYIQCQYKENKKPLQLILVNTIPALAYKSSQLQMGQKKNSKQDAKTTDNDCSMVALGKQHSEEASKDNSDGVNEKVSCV

| SMILES | Emax (5HT2A receptor [1]; [5]) | EC50 (5HT2A receptor [2]; [6]) | Emax (5HT2A receptor [2]; [7]) | EC50 (5HT2A receptor [2]; [12]) | Ki (5HT2A receptor [3]; [14]) | EC50 (5HT2A receptor [1]; [17]) | further results |
| --- | --- | --- | --- | --- | --- | --- | --- |
| Cc1cccc2[nH]nc(C3=CCCNC3)c12 [Example 80, 4-methyl-3-(1,2,5,6-tetrahydropyridin-3-yl)-1H-indazole] | 83.4% | 698 nM | 71.8% |  |  |  | EC50 (5HT2A receptor [1]; [4]): 73.8 nM; Ki (5HT2A receptor [3]; [8]): 254 nM |
| CN1CCC=C(c2n[nH]c3c(F)cccc23)C1 [Example 107, 7-fluoro-3-(1-methyl-1,2,5,6-tetrahydropyridin-3-yl)-1H-indazole] |  | 213 nM |  |  |  |  | EC50 (5HT2A receptor [1]; [9]): 34.5 nM; Emax (5HT2A receptor [1]; read-out: 5HT2A Gq Emax (%), BRET2 Gαq dissociation, HEK293T cells, normalized to 5-HT): 68.1%; Emax (5HT2A receptor [2]; read-out: 5HT2A β-Arr Emax (%), BRET1 beta-arrestin2 recruitment, HEK293T cells, normalized to 5-HT): 36.3%; Ki (5HT2A receptor [3]; [8]): 883 nM |
| CCCN1CCC=C(c2c[nH]c3c(C#N)cccc23)C1 [Example 157, 3-(1-propyl-1,2,5,6-tetrahydropyridin-3-yl)-1H-indole-7-carbonitrile] |  |  |  | 500 nM | 164 nM |  | EC50 (5HT2A receptor [1]; [10]): 93 nM; Emax (5HT2A receptor [1]; [11]): 78%; Emax (5HT2A receptor [2]; [13]): 39.3% |
| COc1cnc2[nH]cc(C3=CCCN(C)C3)c2c1 [Example 6, 5-methoxy-3-(1-methyl-1,2,5,6-tetrahydropyridin-3-yl)-1H-pyrrolo[2,3-b]pyridine] | 65.9% | 792 nM | 33.4% |  |  |  | EC50 (5HT2A receptor [1]; [9]): 44.1 nM; Ki (5HT2A receptor [3]; [8]): 695 nM |
| Clc1cccc2c(C34CNCC3C4)c[nH]c12 (single isomer, unassigned) [Example 277, 3-(3-azabicyclo[3.1.0]hexan-1-yl)-7-chloro-1H-indole] |  |  |  | 212 nM |  |  | 5HTA Gq Emax (%) (5HT2A receptor [1]; [15]): 86.5%; EC50 (5HT2A receptor [1]; [10]): 83.8 nM; Emax (5HT2A receptor [2]; [13]): 25.4%; Ki (5HT2A receptor [3]; [16]): 80.5 nM |
| OCCN1CCC=C(c2n[nH]c3c(Cl)cccc23)C1 [Example 168, 2-(5-(7-chloro-1H-indazol-3-yl)-3,6-dihydropyridin-1(2H)-yl)ethan-1-ol] |  |  |  | 1050 nM | 8640 nM | 183 nM | Emax (5HT2A receptor [1]; [11]): 68.2%; Emax (5HT2A receptor [2]; [13]): 41.6% |
| FC(F)(F)CN1CCC=C(c2n[nH]c3c(Cl)cccc23)C1 [Example 152, 7-chloro-3-(1-(2,2,2-trifluoroethyl)-1,2,5,6-tetrahydropyridin-3-yl)-1H-indazole] |  |  |  | 1050 nM | 389 nM | 1570 nM | Emax (5HT2A receptor [1]; [18]): 89.8%; Emax (5HT2A receptor [2]; [19]): 66.5% |
| Cc1cc(F)cc2c(C3=CCCN(C)C3)c[nH]c12 [Example 116, 5-fluoro-7-methyl-3-(1-methyl-1,2,5,6-tetrahydropyridin-3-yl)-1H-indole] | 125% | 129 nM | 56.1% |  |  |  | EC50 (5HT2A receptor [1]; [4]): 74 nM; Ki (5HT2A receptor [3]; [20]): 99.6 nM |
| Clc1ccc2[nH]nc(C3=CCCNC3)c2c1 [Example 84, 5-chloro-3-(1,2,5,6-tetrahydropyridin-3-yl)-1H-indazole] | 94.8% |  | 97% |  |  |  | EC50 (5HT2A receptor [1]; [4]): 3.4 nM; EC50 (5HT2A receptor [2]; [21]): 52.4 nM; Ki (5HT2A receptor [3]; [20]): 25.3 nM |
| CCc1cccc2c(C3=CCCN(C)C3)c[nH]c12 [Example 52, 7-ethyl-3-(1-methyl-1,2,5,6-tetrahydropyridin-3-yl)-1H-indole] | 89.3% | 880 nM | 73.4% |  |  |  | EC50 (5HT2A receptor [1]; [4]): 25 nM; Ki (5HT2A receptor [3]; [20]): 42 nM |
| Clc1cccc2c(C34CNCC3C4)n[nH]c12 (single isomer, unassigned) [Example 274, 3-(3-azabicyclo[3.1.0]hexan-1-yl)-7-chloro-1H-indazole] |  |  |  | 733 nM | 1580 nM |  | 5HTA Gq Emax (%) (5HT2A receptor [1]; [15]): 117.2%; EC50 (5HT2A receptor [1]; [10]): 61.5 nM; 5HT2A β-Arr Emax (%) (5HT2A receptor [2]; [22]): 50.96% |
| Clc1cccc2c(C3CNC3)c[nH]c12 [Example 255, 3-(azetidin-3-yl)-7-chloro-1H-indole] |  |  |  | 302 nM | 159 nM | 68.2 nM | Emax (5HT2A receptor [1]; [18]): 81.1%; Emax (5HT2A receptor [2]; [19]): 42.3% |
| Fc1ccc(Cl)c2[nH]nc(C3=CCCNC3)c12 [Example 131, 7-chloro-4-fluoro-3-(1,2,5,6-tetrahydropyridin-3-yl)-1H-indazole] |  |  |  |  |  |  | EC50 (5HT2A receptor [1]; [10]): 7.2 nM; Emax (5HT2A receptor [1]; [11]): 106%; EC50 (5HT2A receptor [2]; BRET1 beta-arrestin2 recruitment, HEK293T, read-out: 5HT2A β-Arr EC50): 17.4 nM; Emax (5HT2A receptor [2]; [13]): 72.7%; Ki (5HT2A receptor [3]; [16]): 47.5 nM |
| FC(F)CN1CCC=C(c2n[nH]c3c(Cl)cccc23)C1 [Example 153, 7-chloro-3-(1-(2,2-difluoroethyl)-1,2,5,6-tetrahydropyridin-3-yl)-1H-indazole] |  |  |  | 1200 nM | 634 nM | 1240 nM | Emax (5HT2A receptor [1]; [11]): 83.9%; Emax (5HT2A receptor [2]; [13]): 77.4% |
| CCc1cccc2c(C3=CCCN(C4CC4)C3)n[nH]c12 [Example 238, 3-(1-cyclopropyl-1,2,5,6-tetrahydropyridin-3-yl)-7-ethyl-1H-indazole] |  |  |  | 1020 nM | 634 nM | 101 nM | Emax (5HT2A receptor [1]; [11]): 42.2%; Emax (5HT2A receptor [2]; [13]): 50% |
| Cc1cc(F)cc2c(C34CNCC3C4)c[nH]c12 (centres unmarked) [Example 282, 3-(3-azabicyclo[3.1.0]hexan-1-yl)-5-fluoro-7-methyl-1H-indole] |  |  |  | 1280 nM | 257 nM | 165 nM | Emax (5HT2A receptor [1]; [18]): 96.8%; Emax (5HT2A receptor [2]; [19]): 44.8% |
| Clc1[nH]c2ccccc2c1C1=CCCNC1 [Example 64, 2-chloro-3-(1,2,5,6-tetrahydropyridin-3-yl)-1H-indole] | 91.8% | 219 nM | 60.2% |  |  |  | EC50 (5HT2A receptor [1]; [9]): 61.9 nM; Ki (5HT2A receptor [3]; [8]): 186 nM |
| Clc1cccc2c(C34CNCC3C4)n[nH]c12 (single isomer, unassigned) [Example 273, 3-(3-azabicyclo[3.1.0]hexan-1-yl)-7-chloro-1H-indazole] |  |  |  | 1300 nM | 6300 nM | 226 nM | 5HTA Gq Emax (%) (5HT2A receptor [1]; [15]): 81.0%; 5HT2A β-Arr Emax (%) (5HT2A receptor [2]; [22]): 20.73% |
| Fc1ccc2[nH]nc(C3=CCCNC3)c2c1 [Example 85, 5-fluoro-3-(1,2,5,6-tetrahydropyridin-3-yl)-1H-indazole] | 88.3% |  | 96% |  |  |  | EC50 (5HT2A receptor [1]; [4]): 2.8 nM; EC50 (5HT2A receptor [2]; [21]): 68.6 nM; Ki (5HT2A receptor [3]; [20]): 33.4 nM |
| Clc1ccc2c(C3=CCCNC3)n[nH]c2c1 [Example 77, 6-chloro-3-(1,2,5,6-tetrahydropyridin-3-yl)-1H-indazole] | 93.9% | 430 nM | 76.7% |  |  |  | EC50 (5HT2A receptor [1]; [4]): 38.9 nM; Ki (5HT2A receptor [3]; [8]): 439 nM |
| Clc1cccc2c(C3=CCCCNC3)n[nH]c12 [Example 208, 7-chloro-3-(2,5,6,7-tetrahydro-1H-azepin-3-yl)-1H-indazole] |  |  |  | 1900 nM | > 10000 nM | 849 nM | Emax (5HT2A receptor [1]; [18]): 95.7%; Emax (5HT2A receptor [2]; [19]): 48.9% |
| CN1CCC=C(c2n[nH]c3c(Cl)cccc23)C1 [Example 106, 7-chloro-3-(1-methyl-1,2,5,6-tetrahydropyridin-3-yl)-1H-indazole] | 85.5% | 176 nM | 66.8% |  |  |  | EC50 (5HT2A receptor [1]; [4]): 39.1 nM; Ki (5HT2A receptor [3]; [8]): 332 nM |
| CN1CCC=C(c2c[nH]c3ncc(Cl)cc23)C1 [Example 7, 5-chloro-3-(1-methyl-1,2,5,6-tetrahydropyridin-3-yl)-1H-pyrrolo[2,3-b]pyridine] | 73.4% | 18.7 nM | 20.7% |  |  |  | EC50 (5HT2A receptor [1]; [9]): 56.9 nM; Ki (5HT2A receptor [3]; [8]): 209 nM |
| Fc1ccc2c(C34CNCC3C4)c[nH]c2c1Cl (centres unmarked) [Example 280, 3-(3-azabicyclo[3.1.0]hexan-1-yl)-7-chloro-6-fluoro-1H-indole] |  |  |  | 256 nM | 63.8 nM | 38.1 nM | Emax (5HT2A receptor [1]; [18]): 81.6%; Emax (5HT2A receptor [2]; [19]): 55.6% |
| CC#CCN1CCC=C(c2n[nH]c3c(Cl)cccc23)C1 [Example 149, 3-(1-(but-2-yn-1-yl)-1,2,5,6-tetrahydropyridin-3-yl)-7-chloro-1H-indazole] |  |  |  | 113 nM | 364 nM | 10.1 nM | Emax (5HT2A receptor [1]; [18]): 49.8%; Emax (5HT2A receptor [2]; [19]): 24.2% |

Source: patent US20260265246A1 (ICAHN SCHOOL OF MEDICINE AT MOUNT SINAI, priority 2021, published 2026)
